US20240158448A1, “MULTIVALENT NANO-'SELF' PEPTIDES AND USES THEREOF” (THE TRUSTEES OF THE UNIVERSITY OF PENNSYLVANIA, priority 2021, published 2024)
Entries after “also recorded” stand apart in the source; their conditions may differ. No end group written: not given here.

Experiments:
[1] = test system: mouse J774A.1 macrophages; experiment: In vitro phagocytosis assay: opsonized human RBCs engulfed by mouse J774A.1 macrophages; type: cell-based; conditions: saturating / 50 μM peptide
Description: In vitro phagocytosis assay. […] For CD47 blocked RBCs, 5 μg/mL of mouse anti-human CD47 (B6H12; BD Biosciences) were added. Thereafter, RBCs were washed with PBS three times and stained with PKH26 dye (1:800 dilution in PBS; Sigma) for 1 hour at RT with shaking in the dark. RBCs were washed and resuspended in PBS. J774A.1 macrophages were plated for 24 hours in RPMI. For SIRPα blocked J774A.1 macrophages, the same peptide blocking procedure as described elsewhere herein was used with the addition of a positive control using 5 μg/mL rat anti-mouse SIRPα ([…]; BD Biosciences). […] CO2 and 95% humidity. Macrophages were then washed with RPMI three times. Adherent and uninternalized RBCs were lysed with water for 30 seconds followed by immediate replacement with RPMI media. In order to distinguish remaining adherent RBCs from internalized RBCs, opsonized RBCs were stained with AlexaFluor 647 donkey anti-rabbit (binds to rabbit polyclonal opsonin on RBC; Invitrogen) IgG (1:1000) while unopsonized, CD47 blocked RBCs were stained with AlexaFluor 647 donkey anti-mouse (binds to mouse monoclonal anti-CD47 on RBCs; Invitrogen) IgG (1:1000) for 30 minutes. After washing, macrophages were fixed with 4% formaldehyde for 15 minutes at RT, washed with PBS, stained with 1 μg/mL Hoechst 33342, and then washed with PBS again. Fluorescence imaging was performed as described elsewhere herein and quantification was done using ImageJ. At least 200 cells were analyzed and experiments were repeated at least three times.

human THP-1 macrophages [2] = experiment: In vitro phagocytosis assay: opsonized human RBCs engulfed by peptide-treated THP-1 macrophages; type: cell-based
Description: In vitro phagocytosis assay. Fresh human RBCs were washed twice with 50 mM EDTA (Thermo Fischer) in PBS (Gibco) then twice with 5% FBS in PBS. RBCs were opsonized with 20 μg/mL rabbit anti-human RBC antibody (Rockland) in 5% FBS for 1 hour at RT with shaking. For CD47 blocked RBCs, 5 μg/mL of mouse anti-human CD47 (B6H12; BD Biosciences) were added. Thereafter, RBCs were washed with PBS three times and stained with PKH26 dye (1:800 dilution in PBS; Sigma) for 1 hour at RT with shaking in the dark. RBCs were washed and resuspended in PBS.
THP-1 monocytes were PMA differentiated in RPMI for 48 hours. Macrophages were then washed with RPMI media three times. For SIRPα blocked THP-1 macrophages, 20 nM, 1 μM or 50 μM of the nano—Self peptides were incubated with the THP-1 macrophages for 1 hour at 37 ° C., 5% CO2 and 95% humidity. Those THP-Is were then washed with RPMI three times.
CO2 and 95% humidity. Macrophages were then washed with RPMI three times. Adherent and uninternalized RBCs were lysed with water for 30 seconds followed by immediate replacement with RPMI media. In order to distinguish remaining adherent RBCs from internalized RBCs, opsonized RBCs were stained with AlexaFluor 647 donkey anti-rabbit (binds to rabbit polyclonal opsonin on RBC; Invitrogen) IgG (1:1000) while unopsonized, CD47 blocked RBCs were stained with AlexaFluor 647 donkey anti-mouse (binds to mouse monoclonal anti-CD47 on RBCs; Invitrogen) IgG (1:1000) for 30 minutes. After washing, macrophages were fixed with 4% formaldehyde for 15 minutes at RT, washed with PBS, stained with 1 μg/mL Hoechst 33342, and then washed with PBS again. Fluorescence imaging was performed as described elsewhere herein and quantification was done using ImageJ. At least 200 cells were analyzed and experiments were repeated at least three times.

THP-1 macrophages = experiment: Phosphotyrosine (pTyr) staining of THP-1 macrophages; type: cell-based, human; conditions: 50 μM peptide
Description: Phosphotyrosine (pTyr) staining. THP-1 monocytes were PMA differentiated for 48 hours. Macrophages were washed with RPMI three times then incubated with 50 μM and 20 nM of either nS-F or nS-FF for 1 hour at 37° C., 5% CO2 and 95% humidity. The same conditions were replicated with the addition of 5 μg/mL anti-CD47. Excess peptide was washed with PBS then macrophages were fixed. […] After washing with PBS, the macrophages were incubated with 1:100 mouse anti-pTyr (Santa Cruz Biotechnology) for 1 hour at room temperature with shaking. Macrophages were washed with PBS then stained with AlexaFluor 488 donkey anti-mouse (1:1000; Invitrogen) and 1 μg/mL Hoechst 33342 for 1 hour with shaking then washed again. Fluorescence imaging and quantification was performed as described elsewhere herein.

human THP-1 macrophages [3] = experiment: Residual adhesion of opsonized RBCs to macrophages; type: cell-based; conditions: 50 μM peptide
Text: To measure the residual adhesion of RBCs and distinguish it from internalization by macrophages, the engulfment assay with human RBCs used a secondary antibody against the opsonizing IgG, which allowed us to clearly see RBCs in contact with macrophages that are not internalized (FIG. 29C). The cells are also firmly attached to the macrophages because the culture dishes were rinsed after fixation and secondary antibody labeling. […] All of the RBCs in these samples are equally opsonized with IgG that binds Fc-receptors (FcR's) on macrophages, and so differences in measured adhesion implicate differences in the CD47—SIRPα interaction.

[4] = test system: mouse bone marrow derived macrophages (BMDMs); experiment: Phagocytosis of anti-TYRP1 opsonized B16F10 melanoma cells by mouse bone marrow derived macrophages; type: cell-based; conditions: 50 μM peptide
Description: B16F10 cells: Bone marrow cells were isolated from femurs and tibias of healthy C57BL6/J mice (The Jackson Laboratory) and cultured in 10-cm petri dishes containing IMDM (Gibco) supplemented with 10% v/v FBS, 1% v/v penicillin/streptomycin, and 1:10,000 macrophage colony stimulating factor cytokine (M-CSF; Biolegend) for 7 days at 37° C., 5% CO2 and 95% humidity. All animal experiments were performed according to protocols approved by the University of Pennsylvania's IACUC (protocol #805977 and #804455). The resulting mouse bone marrow derived macrophages (BMDMs) were washed with PBS containing Ca2^+/Mg2^+ (Gibco) then detached with 0.25% trypsin-EDTA (Gibco) and re-plated in 6-well tissue culture plates using IMDM+M-CSF for 24 hours.
Mouse melanoma B16F10 cells were washed with PBS containing Ca2-/Mg2- and then trypsinized with 0.05% trypsin-EDTA. After washing twice with PBS, the cells were labeled with 1:10,000 CFDA—SE (Thermo Fisher) in PBS for 10 minutes. B16F10 cells were opsonized with 10 μg/mL anti-TYRP1 (TA99; Bio X Cell) in PBS for 2 hours at 4° C.with occasional inverting. For CD47 blocked B16F10 cells, 5 μg/mL of […] were added. During the incubation time, the BMDMs were washed with media then stained with 1:2,000 CellTracker Deep Red (Thermo Fisher) in PBS with Ca2^+/Mg2^+ for 10 min. After washing, 50 μM of the nano—Self peptides were incubated with the BMDMs for 1 hour at 37° C., 5% CO2 and 95% humidity. Finally, BMDMs were washed twice with PBS and then twice with serum-free IMDM.
Without removing the supernatant, the opsonized melanoma cells were added to the labeled BMDMs at a ratio of 2:1 for 2 hours at 37° C., 5% CO2 and 95% humidity. During the last 15 minutes of the assay, the cells were Hoechst stained. The wells were washed with serum free IMDM then fixed with 4% formaldehyde for 15 minutes at RT, and PBS washed. Fluorescence imaging was performed using an Olympus IX71 with a digital EMCCD camera (Cascade 512B) and a 40×/0.6 NA objective. Quantification was done with ImageJ (NIH). At least 200 cells were analyzed and two-tailed student's t-test was used to determine statistical significance.

[5] = test system: A549 (SIRPα positive) cells; experiment: Confocal live staining with FAM-labeled peptides, A549 cells; type: binding, human; conditions: 100 uM and 1 μM FAM-labeled peptide
Description: SIRPα staining and confocal imaging. THP-1 monocytes were PMA-differentiated in RPMI 1640 for 24 hours. J774A.1, A549, and COS-1 cells were plated for 24 hours in media, respectively. Cells were washed with respective media prior to addition of fluorescent peptides. The peptides were left to incubate for 1 hour at 37 ° C., 5% CO2 and 95% humidity. For fixed cell staining, cells were incubated with 4% formaldehyde (Pierce) for 15 minutes prior to the addition of fluorescent peptides whereas for live cell staining, fixation was done after incubation with the FAM-labeled peptides. Nuclei were stained with 1 μg/mL Hoechst 33342 (Invitrogen). Cells were the washed PBS three times before analysis. Fluorescence imaging of fixed cells was performed using an Olympus IX71 with a digital EMCCD camera (Cascade 512B) and a 40×/0.6 NA objective. […] Quantification was done with ImageJ (NIH).
In order to visualize the uneven binding of the peptides to the surface of the macrophages, a live staining experiment of THP-1, J774A.1, and A549 cells, which all express SIRPα at different levels, was performed with FAM-labeled nS-wt and nS-X and analyzed by confocal microscopy (FIG. 11). […] Fluorescence of nS-X was consistently lower on THP-1 and J774A.1 macrophages relative to nS-wt. […]

soluble human SIRPα = molecular target: T1, soluble human SIRPα (Homo sapiens, UniProt P78324); experiment: Binding of biotinylated peptides on streptavidin beads to soluble SIRPα
T1 construct: Soluble human SIRPα fused with glutathione s-transferase (SIRPα-GST); GST (glutathione S-transferase); made in house
Text: SIRPα Expression and Purification. Soluble human SIRPα fused with glutathione s-transferase (SIRPα-GST) was expressed and purified as previously published (Tsai, et al., 2008, J. Cell Biol. 180:989-1003).
Peptide biotinylation: NHS-biotin (Thermo Fischer) was mixed with nS-wt and nS-V, respectively, following the manufacturer's protocol. The biotinylated peptides were dialyzed against PBS.
Streptavidin-beads binding: Streptavidin-coated polystyrene beads of 2.1 μm radius (Spherotech) were washed and blocked 3x in PBS plus 0.4% BSA. nS-wt-biotin or nS-V-biotin were incubated with the beads for 1 hour at room temperature with shaking. Beads were washed with PBS, then incubated with recombinant SIRPα for 1 hour in ice. Streptavidin beads were labeled with rabbit anti-streptavidin-FITC (Invitrogen) and SIRPα was stained with mouse anti-SIRPα-allophycocyanin (anti-SIRPα-APC; Invitrogen).

T1 sequence (P78324 31-373 limits assumed): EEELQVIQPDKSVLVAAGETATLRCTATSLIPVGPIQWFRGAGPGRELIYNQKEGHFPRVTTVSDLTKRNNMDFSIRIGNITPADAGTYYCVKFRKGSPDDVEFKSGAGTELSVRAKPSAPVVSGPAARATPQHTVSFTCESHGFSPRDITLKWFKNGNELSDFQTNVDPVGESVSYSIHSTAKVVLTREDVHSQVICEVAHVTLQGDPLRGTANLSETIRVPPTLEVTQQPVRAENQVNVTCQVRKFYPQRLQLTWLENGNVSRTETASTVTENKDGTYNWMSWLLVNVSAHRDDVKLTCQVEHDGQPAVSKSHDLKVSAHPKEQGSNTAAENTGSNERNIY

Sequence	effect on phagocytosis of opsonized RBCs (words) [1]	effect on phagocytosis of opsonized RBCs (words) (human THP-1 macrophages [2]; 20 nM peptide)	effect on phagocytosis of opsonized RBCs (words) (human THP-1 macrophages [2]; saturating / 50 μM peptide)	increase of macrophage phagocytosis relative to nS-wt (human THP-1 macrophages [2]; saturating peptide)	effect on pTyr signal (THP-1 macrophages)	residual adhesion of opsonized RBCs to macrophages (human THP-1 macrophages [3])	effect on phagocytosis of opsonized WT and SIRPα KO B16 cells [4]	effect on phagocytosis of opsonized RBCs (words) (human THP-1 macrophages [2]; saturating / 50 μM peptide, listed as nSX)	effect on pTyr signal (THP-1 macrophages; listed as nSX)	binding to A549 cells [5]	SIRPα binding to peptide-coated beads (soluble human SIRPα)
VTELFREG (VTELFREG-NH2) [nS-F, nano-Self peptide with Thr to Phe mutation]	significantly greater than any other peptide tested	did not significantly change the amount of macrophage eating relative to anti-CD47 treatment; also recorded: only modest activity	significantly greater than any other peptide tested; also recorded: Maximum levels of phagocytic macrophages	roughly 25%	also suppressed pTyr	lowest amount of residual adhesion to macrophages	Maximum levels of phagocytic macrophages				
LETVEGTR (LETVEGTR-NH2) [nS-X, scrambled control peptide]			no effect is observed; also recorded: unaffected; also recorded: do not affect baseline engulfment of opsonized RBCs; also recorded: does not affect opsonization-driven eating of RBCs		inhibition of phosphorylation is not observed	predominantly adherent RBCs	no effect; also recorded: does not affect opsonization-driven eating	do not have effects on phagocytosis	had no effect on pTyr	fluorescence was not observed at either concentration	
VTELVREG [nS-V, VTELVREG]		did not significantly change the amount of macrophage eating relative to anti-CD47 treatment	activity profiles in phagocytosis assays that are similar to the monovalent nS-F								fluorescence is only observed in the presence of biotinylated peptide
